{"source": "patent US10695341B2", "about": "“Compositions and methods for treating endometriosis” (UNIVERSITY OF SOUTH FLORIDA, priority 2014, dated 2020)", "key": {"endometriotic lesions [1]": {"test_system": "endometriotic lesions", "assay": "Immunohistochemistry of lesions (CK8, ERα, PR)", "type": "in vivo, mouse", "conditions": "PR immunohistochemical staining, lesions from HCQ-treated mice", "method": "Collected samples were immediately preserved in 10% neutral buffered formalin at the animal facility. Samples were embedded in paraffin, sectioned, and transferred to slides for hematoxylin/eosin and immunohistochemical staining. A pathologist reviewed each case and delimited the region of interest, containing epithelial and stromal cells, for each specimen. A mouse tissue microarray was prepared at the Tissue Core Facility at the Moffitt Cancer Center. The mouse tissue microarray contained a total of 113 core samples, which included 10 uterine horns and 10 ovaries from both PBS and HCQ treated mice. As control specimens for the utilized antibodies, the TMA included mouse mammary tissue, liver, small intestine, and lymph nodes from a PBS treated mouse. Lesions were analyzed from independent blocks. Slides were stained using a Leica Bond RX automated system (Leica Biosytems, Buffalo Grove, Ill.) following manufacturers instructions with proprietary reagents. Slides were deparaffinized on an automated system with Dewax Solution (Leica Biosystems). […]"}, "endometriotic lesions [2]": {"test_system": "endometriotic lesions", "assay": "Induced murine endometriosis model, lesion count (Example 6)", "type": "in vivo, C57BL/6 mice", "method": "To determine whether treatment with HCQ alters the formation of endometriotic lesions, an induced model of murine endometriosis in which mice receive injections of uterine horn fragments that develop into lesions within 2 weeks was utilized. Receipient (endometriosis-induced) mice were treated with 60 mg/kg HCQ21 or phosphate-buffered saline (PBS, FIG. 12). This treatment was repeated once every seven days post-induction. Mice that were neither injected with uterine horn fragments nor treated were used as controls (FIG. 39). All of the mice were euthanized at the same time (14 days after endometriosis induction for both the PBS and HCQ treatment groups). Ectopic lesions that developed in the recipient mice (white arrow, FIGS. 40A-40B) were counted, measured, and collected for RNA and protein analysis, as well as for histological staining. […] The majority (87.5%) of endometriosis-induced mice developed lesions. At the time of collection, we noted that the endometriotic lesions varied in size, color, and location across the treatment groups.\nFive-week-old C57BL/6 female mice were purchased from Jackson laboratories. All animals were maintained under standard 12 h photoperiod; food and water were available ad libitum throughout the study. […] Lesions were measured using a caliper. Volume of the lesions was calculated according to the formula: 4/3πr^2R."}, "ATG5 and ATG3 mRNA": {"test_system": "ATG5 and ATG3 mRNA", "assay": "Real-time PCR of autophagic mediators in lesions", "type": "in vivo, C57BL/6 mice", "conditions": "lesions of HCQ-treated vs PBS-treated mice", "method": "Total RNA was isolated using the RNeasy kit following the manufacturer's instructions (QIAGEN, Valencia, Calif.). RNA concentration and purity was determined using a 1000 NanoDrop (Thermo Scientific, Pittsburgh, Pa.). Lesion mass varied by samples, and this was reflected in the RNA amounts obtained (range of mass: 0.9 mg to 25 mg). Three RNA samples from uterine horns, having a 260/280 ratio higher than 1.8 and a 260/230 ratio higher than 1.7, were selected from recipient, donor, HCQ-treated, and PBS-treated animals (12 samples in total) for RT2-PCR analyses. Synthesis of cDNA was performed using 0.5 μg of total RNA, after DNA elimination step using the RT2 First Strand kit per manufacturer instructions (QIAGEN, Valencia, Calif.). After DNA elimination, the reaction mix was incubated at 42° C. for 15 min, followed by 95° C. for 5 min using a DNA Engine® Peltier Thermal cycler (Bio-Rad, Hercules, Calif.). A total of 102 μl of the cDNA reaction mix was added to the master mix containing 1,248 μl of RNAse-free water and 1,350 μl of 2× RT2 SYBR green master mix. Twenty-five μl of the master mix were carefully added to each well of the RT2 profiler PCR autophagy array. Quantification was performed using the Applied Biosystems cycler (Life Technologies, Grand Island, N.Y.). […] The PCR cycling program finalized with a melt curve analysis and data was analyzed using the QIAGEN web-based software."}}, "data": [{"compound": "CCN(CCO)CCCC(C)Nc1ccnc2cc(Cl)ccc12", "note": "(centres unmarked) [HCQ, hydroxychloroquine]", "values": [{"measurement": "stained lesions with absence of glandular components", "setting": "endometriotic lesions [1]", "value": "four out of the seven"}, {"measurement": "number of lesions that developed vs PBS", "setting": "endometriotic lesions [2]; 60 mg/kg HCQ i.p., repeated after seven days, 14 days after induction, p=0.0007", "value": "significant reduction"}, {"measurement": "total number of lesions in treatment group", "setting": "endometriotic lesions [2]; 60 mg/kg HCQ, n=25 mice (PBS: 46 lesions in n=24)", "value": 18}, {"measurement": "ATG3 mRNA in lesions", "setting": "ATG5 and ATG3 mRNA; p=0.0248", "value": "significant increase"}, {"measurement": "ATG5 mRNA in lesions", "setting": "ATG5 and ATG3 mRNA; p=0.0499", "value": "significant increase"}]}]}
